The source of these data is patent publication US11566022B2, “3-(5-methoxy-1-oxoisoindolin-2-yl)piperidine-2,6-dione derivatives and uses thereof” (NOVARTIS AG, priority 2019, dated 2023).

SMILES strings stand for the structures.

The target of the test is HiBit-WIZ fusion protein (Homo sapiens, UniProt O95785+Q96SW2). The test can be described thus: Quantification of WIZ protein levels in HiBit tag fusion protein assay (WIZ HiBit assay in 293T cells). The format is cell-based. Set-up: Dmax: dose or concentration left out as unconfirmed. Conditions: for Dmax / remaining activity at up to 25 µM: HEK-293T, 293T cells; for Dmax: 100 minus Amax, read-out: % degradation of WIZ (100-Amax); for remaining activity at up to 25 µM: DMSO-normalized, curve-fitted percentage of WIZ-HiBit remaining at 25 uM, read-out: WIZ Amax; for DC50: WIZ HiBit assay in 293T cells, 10-point, 5-fold dose response, highest concentration 25 μM, about 18 hours, read-out: WIZ AC50. For orientation: With HiBiT, luminescence reflects the tagged protein that the partner subunit can reach.
Sequence of HiBit-WIZ fusion protein (O95785 whole entry, the tested form may be a part): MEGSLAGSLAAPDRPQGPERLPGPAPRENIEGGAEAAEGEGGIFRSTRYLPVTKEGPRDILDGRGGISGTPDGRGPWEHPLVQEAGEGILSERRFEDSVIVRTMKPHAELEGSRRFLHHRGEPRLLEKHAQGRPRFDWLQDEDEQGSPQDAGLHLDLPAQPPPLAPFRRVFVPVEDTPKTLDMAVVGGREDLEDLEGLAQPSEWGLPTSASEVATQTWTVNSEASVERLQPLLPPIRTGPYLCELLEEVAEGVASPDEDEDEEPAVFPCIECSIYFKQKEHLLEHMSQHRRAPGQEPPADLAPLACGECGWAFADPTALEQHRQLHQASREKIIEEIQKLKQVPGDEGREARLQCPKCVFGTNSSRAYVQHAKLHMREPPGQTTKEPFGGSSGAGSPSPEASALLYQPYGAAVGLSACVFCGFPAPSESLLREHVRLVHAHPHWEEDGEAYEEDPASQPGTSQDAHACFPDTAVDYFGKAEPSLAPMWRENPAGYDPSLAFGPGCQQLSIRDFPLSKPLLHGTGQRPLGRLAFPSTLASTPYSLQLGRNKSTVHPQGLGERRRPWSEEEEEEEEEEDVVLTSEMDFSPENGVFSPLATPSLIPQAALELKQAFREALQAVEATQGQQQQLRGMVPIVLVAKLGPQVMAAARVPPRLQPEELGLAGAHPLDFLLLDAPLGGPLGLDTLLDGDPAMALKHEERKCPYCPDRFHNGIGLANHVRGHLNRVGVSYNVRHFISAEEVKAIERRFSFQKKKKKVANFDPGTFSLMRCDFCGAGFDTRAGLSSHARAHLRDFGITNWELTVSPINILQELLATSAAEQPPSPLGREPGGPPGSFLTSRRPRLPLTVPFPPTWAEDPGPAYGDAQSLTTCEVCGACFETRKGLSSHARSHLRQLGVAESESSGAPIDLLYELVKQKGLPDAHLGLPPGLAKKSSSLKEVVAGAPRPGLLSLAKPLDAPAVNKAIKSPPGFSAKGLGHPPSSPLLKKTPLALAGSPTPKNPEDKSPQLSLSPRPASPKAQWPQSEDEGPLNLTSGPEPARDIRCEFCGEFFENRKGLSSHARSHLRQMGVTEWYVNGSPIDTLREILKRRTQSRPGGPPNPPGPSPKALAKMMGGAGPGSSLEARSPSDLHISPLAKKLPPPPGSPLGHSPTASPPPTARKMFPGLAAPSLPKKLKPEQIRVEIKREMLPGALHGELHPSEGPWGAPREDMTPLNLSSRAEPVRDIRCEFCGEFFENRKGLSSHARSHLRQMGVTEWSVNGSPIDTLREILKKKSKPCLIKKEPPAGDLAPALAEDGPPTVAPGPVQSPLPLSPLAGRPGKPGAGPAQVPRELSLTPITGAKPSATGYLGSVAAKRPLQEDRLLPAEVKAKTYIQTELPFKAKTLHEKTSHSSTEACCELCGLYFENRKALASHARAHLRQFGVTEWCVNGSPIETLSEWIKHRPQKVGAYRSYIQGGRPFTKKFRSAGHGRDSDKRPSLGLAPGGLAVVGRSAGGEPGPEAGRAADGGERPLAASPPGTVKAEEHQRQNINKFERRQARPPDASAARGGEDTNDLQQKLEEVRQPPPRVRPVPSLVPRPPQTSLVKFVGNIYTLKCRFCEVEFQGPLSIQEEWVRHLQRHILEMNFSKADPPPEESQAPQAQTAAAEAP
Sequence of HiBit-WIZ fusion protein (Q96SW2 whole entry, the tested form may be a part): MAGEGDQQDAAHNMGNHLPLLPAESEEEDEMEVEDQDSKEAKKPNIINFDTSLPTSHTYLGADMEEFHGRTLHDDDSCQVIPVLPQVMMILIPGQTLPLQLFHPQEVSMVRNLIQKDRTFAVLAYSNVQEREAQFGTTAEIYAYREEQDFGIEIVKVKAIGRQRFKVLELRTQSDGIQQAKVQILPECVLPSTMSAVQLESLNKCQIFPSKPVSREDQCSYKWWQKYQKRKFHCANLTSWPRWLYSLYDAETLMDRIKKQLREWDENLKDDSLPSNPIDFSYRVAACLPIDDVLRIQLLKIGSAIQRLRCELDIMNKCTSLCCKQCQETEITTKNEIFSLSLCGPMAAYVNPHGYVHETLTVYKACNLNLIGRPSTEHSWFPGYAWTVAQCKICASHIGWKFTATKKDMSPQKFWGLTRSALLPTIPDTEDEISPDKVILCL
Sequence of HiBit-WIZ fusion protein (Q16531 whole entry partner, the tested form may be a part): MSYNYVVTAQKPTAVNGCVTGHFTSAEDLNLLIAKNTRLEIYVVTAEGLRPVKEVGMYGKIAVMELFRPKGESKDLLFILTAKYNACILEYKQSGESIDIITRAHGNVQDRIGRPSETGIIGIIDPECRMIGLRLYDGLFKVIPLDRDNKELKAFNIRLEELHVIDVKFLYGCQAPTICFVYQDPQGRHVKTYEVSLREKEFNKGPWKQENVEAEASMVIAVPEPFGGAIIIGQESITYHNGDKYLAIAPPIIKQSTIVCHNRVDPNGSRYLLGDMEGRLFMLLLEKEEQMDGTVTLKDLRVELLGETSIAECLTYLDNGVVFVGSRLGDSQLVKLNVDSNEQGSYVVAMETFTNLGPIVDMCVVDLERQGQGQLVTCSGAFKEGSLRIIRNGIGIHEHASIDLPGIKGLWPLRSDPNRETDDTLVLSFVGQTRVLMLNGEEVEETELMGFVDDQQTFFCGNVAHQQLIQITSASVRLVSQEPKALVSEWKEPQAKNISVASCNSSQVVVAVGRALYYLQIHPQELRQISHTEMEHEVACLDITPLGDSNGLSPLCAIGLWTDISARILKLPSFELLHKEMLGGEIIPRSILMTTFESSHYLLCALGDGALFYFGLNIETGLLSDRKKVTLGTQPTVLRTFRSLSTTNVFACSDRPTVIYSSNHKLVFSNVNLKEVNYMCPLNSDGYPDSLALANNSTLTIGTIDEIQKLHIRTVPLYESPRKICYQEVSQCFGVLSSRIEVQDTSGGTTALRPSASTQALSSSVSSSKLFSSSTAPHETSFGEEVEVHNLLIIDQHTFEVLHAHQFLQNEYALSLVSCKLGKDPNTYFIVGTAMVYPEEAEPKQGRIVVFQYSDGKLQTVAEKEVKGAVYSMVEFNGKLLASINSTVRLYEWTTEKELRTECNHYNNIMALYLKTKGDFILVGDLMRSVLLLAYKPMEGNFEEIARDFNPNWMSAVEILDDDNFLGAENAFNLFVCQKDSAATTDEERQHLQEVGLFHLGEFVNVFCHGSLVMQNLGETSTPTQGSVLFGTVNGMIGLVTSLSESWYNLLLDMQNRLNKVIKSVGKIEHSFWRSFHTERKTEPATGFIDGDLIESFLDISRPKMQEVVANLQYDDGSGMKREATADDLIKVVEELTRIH

For `Cn1c(CN2CCCC[C@H]2COc2ccc3c(c2)CN(C2CCC(=O)NC2=O)C3=O)nc2ccccc21` (stereo partly drawn) [Compound I-50ap], the Dmax came out at 30.1%, the remaining activity at up to 25 µM worked out at 69.9% and the DC50 is over 25 µM.

In the case of `CC(C)(C)OC(=O)NC1(CN2CCCC[C@H]2COc2ccc3c(c2)CN(C2CCC(=O)NC2=O)C3=O)CCCC1` (stereo partly drawn) [Compound I-50aq], the Dmax is 15.4%, the remaining activity at up to 25 µM was determined as 84.6% and the DC50 was over 25 µM.

Take `CN(C)c1ncc(CN2CCCC[C@@H]2COc2ccc3c(c2)CN(C2CCC(=O)NC2=O)C3=O)cn1` (stereo partly drawn) [Compound I-50ar]: the Dmax is 78.2%, the remaining activity at up to 25 µM stood at 21.8% and the DC50 worked out at 1.14 µM.

For `CCN(CC)c1ccc(CN2CCCC[C@H]2COc2ccc3c(c2)CN(C2CCC(=O)NC2=O)C3=O)cn1` (stereo partly drawn) [Compound I-50as], the Dmax amounted to 84.3%, the remaining activity at up to 25 µM was found to be 15.7% and the DC50 turned out to be 0.327 µM.

As for `Cc1nnsc1CN1CCCC[C@H]1COc1ccc2c(c1)CN(C1CCC(=O)NC1=O)C2=O` (stereo partly drawn) [Compound I-50at], the Dmax was 9.8%, the remaining activity at up to 25 µM is 90.2% and the DC50 is over 25 µM.

Regarding `CCOC(=O)c1cccc2[nH]nc(CN3CCCC[C@H]3COc3ccc4c(c3)CN(C3CCC(=O)NC3=O)C4=O)c12` (stereo partly drawn) [Compound I-50au], the Dmax came out at 24.2%, the remaining activity at up to 25 µM was determined as 75.8% and the DC50 was over 25 µM.

In the case of `N#Cc1cccc(Cn2cccc(CN3CCCC[C@H]3COc3ccc4c(c3)CN(C3CCC(=O)NC3=O)C4=O)c2=O)c1` (stereo partly drawn) [Compound I-50aw], the Dmax was 24.5%, the remaining activity at up to 25 µM stood at 75.5% and the DC50 is over 25 µM.

With `O=C1CCC(N2Cc3cc(OC[C@H]4CCCCN4Cc4nccn4Cc4ccccc4)ccc3C2=O)C(=O)N1` (stereo partly drawn) [Compound I-50ax], the Dmax worked out at 92.5%, the remaining activity at up to 25 µM was 7.5% and the DC50 came out at 0.149 µM.

Regarding `COC(=O)c1nn(-c2cccc(C(F)(F)F)c2)cc1CN1CCCC[C@H]1COc1ccc2c(c1)CN(C1CCC(=O)NC1=O)C2=O` (stereo partly drawn) [Compound I-50ay], the Dmax stood at 25.7%, the remaining activity at up to 25 µM turned out to be 74.3% and the DC50 is over 25 µM.

In the case of `O=C1CCC(N2Cc3cc(OC[C@@H]4CCCCN4Cc4ccc(O)c(Cl)c4)ccc3C2=O)C(=O)N1` (stereo partly drawn) [Compound I-50b], the Dmax was found to be 83%, the remaining activity at up to 25 µM is 17% and the DC50 is 1.48 µM.

Turning to `Cc1nc(-c2cccc(CN3CCCC[C@H]3COc3ccc4c(c3)CN(C3CCC(=O)NC3=O)C4=O)c2)no1` (stereo partly drawn) [Compound I-50bb], the Dmax stood at 56.8%, the remaining activity at up to 25 µM turned out to be 43.2% and the DC50 stood at 18.3 µM.

For the compound `Cn1nc(CN2CCCC[C@H]2COc2ccc3c(c2)CN(C2CCC(=O)NC2=O)C3=O)cc1-c1ccccc1` (stereo partly drawn) [Compound I-50bc], the Dmax worked out at 93.4%, the remaining activity at up to 25 µM was determined as 6.6% and the DC50 turned out to be 0.058 µM.

Regarding `NS(=O)(=O)c1cc(CN2CCCC[C@H]2COc2ccc3c(c2)CN(C2CCC(=O)NC2=O)C3=O)ccc1Cl` (stereo partly drawn) [Compound I-50bd], the Dmax turned out to be 41.1%, the remaining activity at up to 25 µM was found to be 58.9% and the DC50 is over 25 µM.

As for `Nc1ncc(CN2CCCC[C@H]2COc2ccc3c(c2)CN(C2CCC(=O)NC2=O)C3=O)cn1` (stereo partly drawn) [Compound I-50be], the Dmax was found to be 41.9%, the remaining activity at up to 25 µM came out at 58.1% and the DC50 was over 25 µM.

Turning to `COc1ccc(CN2CCCC[C@H]2COc2ccc3c(c2)CN(C2CCC(=O)NC2=O)C3=O)cn1` (stereo partly drawn) [Compound I-50bf], the Dmax worked out at 50.9%, the remaining activity at up to 25 µM was 49.1% and the DC50 is over 25 µM.

For `O=C1CCC(N2Cc3cc(OC[C@H]4CCCCN4CC4CCN(Cc5ccccc5)CC4)ccc3C2=O)C(=O)N1` (stereo partly drawn) [Compound I-50bg], the Dmax amounted to 98%, the remaining activity at up to 25 µM turned out to be 2% and the DC50 came out at 0.031 µM.

For `COC(=O)c1ccc(Oc2ccc(CN3CCCC[C@@H]3COc3ccc4c(c3)CN(C3CCC(=O)NC3=O)C4=O)cc2)cc1` (stereo partly drawn) [Compound I-50bh], the Dmax amounted to 99.9%, the remaining activity at up to 25 µM was found to be 0.1% and the DC50 stood at 0.005 µM.

As for `O=C1CCC(N2Cc3cc(OC[C@@H]4CCCCN4Cc4cc(Cl)ccc4O)ccc3C2=O)C(=O)N1` (stereo partly drawn) [Compound I-50bj], the Dmax was 25.8%, the remaining activity at up to 25 µM amounted to 74.2% and the DC50 is over 25 µM.

As to `N#Cc1cc(CN2CCCC[C@H]2COc2ccc3c(c2)CN(C2CCC(=O)NC2=O)C3=O)ccn1` (stereo partly drawn) [Compound I-50bl], the Dmax came to 17.6%, the remaining activity at up to 25 µM turned out to be 82.4% and the DC50 is over 25 µM.

For the compound `N#Cc1cccc(CN2CCCC[C@H]2COc2ccc3c(c2)CN(C2CCC(=O)NC2=O)C3=O)c1` (stereo partly drawn) [Compound I-50bm], the Dmax was 36%, the remaining activity at up to 25 µM amounted to 64% and the DC50 is over 25 µM.

On to `O=C1CCC(N2Cc3cc(OC[C@@H]4CCCCN4Cc4ccnc(N5CCOCC5)c4)ccc3C2=O)C(=O)N1` (stereo partly drawn) [Compound I-50bn], for which the Dmax was determined as 76.2%, the remaining activity at up to 25 µM stood at 23.8% and the DC50 was found to be 0.897 µM.

With `O=C1CCC(N2Cc3cc(OC[C@@H]4CCCCN4Cc4cccc(N5CCOCC5)n4)ccc3C2=O)C(=O)N1` (stereo partly drawn) [Compound I-50bo], the Dmax is 57.4%, the remaining activity at up to 25 µM was determined as 42.6% and the DC50 is 20.8 µM.

On to `Cc1ncc(CN2CCCC[C@@H]2COc2ccc3c(c2)CN(C2CCC(=O)NC2=O)C3=O)[nH]1` (stereo partly drawn) [Compound I-50bp], for which the Dmax stood at 65.9%, the remaining activity at up to 25 µM amounted to 34.1% and the DC50 worked out at 7 µM.

On to `COC(=O)[C@@H]1CC[C@H](CN2CCCC[C@@H]2COc2ccc3c(c2)CN(C2CCC(=O)NC2=O)C3=O)C1` (stereo partly drawn) [Compound I-50bq], for which the Dmax was determined as 72.1%, the remaining activity at up to 25 µM worked out at 27.9% and the DC50 is 1.2 µM.

As to `O=C1CCC(N2Cc3cc(OC[C@H]4CCCCN4Cc4ccc(N5CCN(Cc6ccccc6)CC5)cc4)ccc3C2=O)C(=O)N1` (stereo partly drawn) [Compound I-50br], the Dmax is 94.1%, the remaining activity at up to 25 µM was determined as 5.9% and the DC50 was 0.044 µM.

For the compound `O=C1CCC(N2Cc3cc(OC[C@H]4CCCCN4Cc4ccc(C(=O)N5CCCC5)cc4)ccc3C2=O)C(=O)N1` (stereo partly drawn) [Compound I-50bs], the Dmax came out at 94.5%, the remaining activity at up to 25 µM stood at 5.5% and the DC50 was 0.018 µM.

Take `O=C1CCC(N2Cc3cc(OC[C@H]4CCCCN4Cc4cnn(Cc5ccccc5)c4)ccc3C2=O)C(=O)N1` (stereo partly drawn) [Compound I-50bv]: the Dmax was 99.9%, the remaining activity at up to 25 µM was determined as 0.1% and the DC50 is 0.001 µM.

On to `O=C1CCC(N2Cc3cc(OC[C@@H]4CCCCN4Cc4cccc(O)c4O)ccc3C2=O)C(=O)N1` (stereo partly drawn) [Compound I-50bx], for which the Dmax was 56.4%, the remaining activity at up to 25 µM came out at 43.6% and the DC50 turned out to be 21 µM.

Regarding `Cc1cc(CN2CCCC[C@H]2COc2ccc3c(c2)CN(C2CCC(=O)NC2=O)C3=O)no1` (stereo partly drawn) [Compound I-50by], the Dmax is 25.7%, the remaining activity at up to 25 µM came out at 74.3% and the DC50 was over 25 µM.

With `O=C1CCC(N2Cc3cc(OC[C@@H]4CCCCN4Cc4cccc(Cn5cccn5)c4)ccc3C2=O)C(=O)N1` (stereo partly drawn) [Compound I-50bz], the Dmax was found to be 85.2%, the remaining activity at up to 25 µM was determined as 14.8% and the DC50 stood at 0.172 µM.

`N#Cc1ccn2cc(CN3CCCC[C@H]3COc3ccc4c(c3)CN(C3CCC(=O)NC3=O)C4=O)nc2c1` (stereo partly drawn) [Compound I-50c]: the Dmax came to 38.1%, the remaining activity at up to 25 µM stood at 61.9% and the DC50 is over 25 µM.

Regarding `O=C1CCC(N2Cc3cc(OC[C@H]4CCCCN4Cc4cccn5ccnc45)ccc3C2=O)C(=O)N1` (stereo partly drawn) [Compound I-50ca], the Dmax turned out to be 76.3%, the remaining activity at up to 25 µM amounted to 23.7% and the DC50 came out at 0.239 µM.

Regarding `CC(C)N1CCC(CN2CCCC[C@H]2COc2ccc3c(c2)CN(C2CCC(=O)NC2=O)C3=O)CC1` (stereo partly drawn) [Compound I-50cb], the Dmax stood at 74.5%, the remaining activity at up to 25 µM turned out to be 25.5% and the DC50 was 5.8 µM.

As to `O=C1CCC(N2Cc3cc(OC[C@@H]4CCCCN4Cc4cn[nH]c4)ccc3C2=O)C(=O)N1` (stereo partly drawn) [Compound I-50cc], the Dmax came to 71.7%, the remaining activity at up to 25 µM is 28.3% and the DC50 was found to be 5.97 µM.

With `Cc1nc2ccccn2c1CN1CCCC[C@@H]1COc1ccc2c(c1)CN(C1CCC(=O)NC1=O)C2=O` (stereo partly drawn) [Compound I-50cd], the Dmax stood at 69.7%, the remaining activity at up to 25 µM worked out at 30.3% and the DC50 is 3.74 µM.

As to `O=C1CCC(N2Cc3cc(OC[C@H]4CCCCN4Cc4cncnc4)ccc3C2=O)C(=O)N1` (stereo partly drawn) [Compound I-50ce], the Dmax was 43.9%, the remaining activity at up to 25 µM amounted to 56.1% and the DC50 is over 25 µM.

As to `CC(C)(C)OC(=O)NC1(CN2CCCC[C@@H]2COc2ccc3c(c2)CN(C2CCC(=O)NC2=O)C3=O)CCCC1` (stereo partly drawn) [Compound I-50cf], the Dmax came out at 38.1%, the remaining activity at up to 25 µM was 61.9% and the DC50 was over 25 µM.

For the compound `O=C1CCC(N2Cc3cc(OC[C@H]4CCCCN4Cc4ccc(OCCN5CCOCC5)cc4)ccc3C2=O)C(=O)N1` (stereo partly drawn) [Compound I-50cg], the Dmax is 92.7%, the remaining activity at up to 25 µM turned out to be 7.3% and the DC50 was determined as 0.043 µM.

With `CCOC(=O)c1n[nH]cc1CN1CCCC[C@@H]1COc1ccc2c(c1)CN(C1CCC(=O)NC1=O)C2=O` (stereo partly drawn) [Compound I-50ch], the Dmax amounted to 59.1%, the remaining activity at up to 25 µM was 40.9% and the DC50 was determined as 9.24 µM.
